Data on five compounds can be found in US6268397A, “Use of (α-aminomethyl-3,4-dichlorobenzyl) thioacetamide derivatives for inhibiting dopamine reuptake and new compounds for this use” (Laboratoire. L. Lafon, priority 1995, dated 2001).

Structures can show the parent of a compound that is named as a salt. Where two headings read alike, the source gives them in different places.

Data set [1] has as its target T1, site of dopamine reuptake (Rattus norvegicus, UniProt P23977).
T1 construct: The striata are removed immediately and then stored at -80° C. until used; from tissue; host or cells: rat striatum membranes (male CD Sprague-Dawley)
The data set is described as follows: Inhibition of binding at the site of dopamine reuptake in vitro in rat striatum ([3H]mazindol). More on the design: species or system rat (male, CD Sprague-Dawley). Conditions: pH 7.7, mean of three tests. As to the method:
Inhibition Of Binding At the Site of Dopamine Reuptake In Vitro In Rat Striatum
Rats, (male, CD Sprague-Dawley, 200-250 g) are sacrificed by decapitation. The striata are removed immediately and then stored at -80° C. until used. On the day of the manipulation, the striata are thawed, coated with buffer and then brought into suspension. This suspension is then poured into the centrifuge tubes, made up to 10 ml with pH 7.7 buffer (50 mM Tris (HCl), 120 mM NaCl, 5 mM KCl) and thereafter centrifuged at 20,000 rpm for 15 minutes. The pellet is resuspended in 10 ml of buffer and is then subjected to a second centrifugation (20,000 rpm for 15 minutes). The above procedure is repeated, so that the homogenate undergoes a third centrifugation identical to the previous two. The pellet thereby obtained is suspended in a few ml of buffer and then homogenized. The membrane suspension is then diluted in a requisite volume. Increasing concentrations of the test compounds dissolved in the buffer are distributed. Aliquots of the membrane suspension are then added. The radioactive ligand ([^3 H]mazindol), used as a label of the type of site studied, is then distributed manually in the tubes, which are thereafter incubated (final volume 1 ml).
The reaction is stopped by filtration through a Harvester system (Whatman GF/B filter strip). The filter strip is then washed three times with 5 ml of buffer before being placed in an automatic cutting system.
The cut filters fall into counting vials, and 4 ml of scintillation fluid are distributed automatically by the system. Each sample is subjected to counting of the radioactivity using a liquid scintillation counter.
Three series of tests (test 1, test 2 and test 3) are carried out with each compound for determination of the IC50, each determination being carried out on two different samples.
The specific binding is defined as the difference between the total binding and the non-specific binding (displace by an excess of non-radioactive ligand). The values obtained in counts per minute (cpm) are then converted into disintegrations per minute (dpm) in accordance with the efficiency of the counter.
The IC50 is defined as the concentration of the substance under study needed to displace 50% of the specifically bound radioactive label.
The experimental data emanating from the liquid scintillation counter (Kontron) are stored on diskette, managed by a program (Convert) and then analysed by means of Ligand* software, which calculates the 50% inhibitory concentration (IC50) and the inhibition constant Ki [formula]
where [L] represents the concentration of the radioactive ligand and Kd the dissociation constant of this same ligand. (The values of the IC50 and of Ki are inversely proportional to the affinity of the product under study for the binding site.

The subject of data set [2] is mice. Nature of the data set: Toxicity in mice via the i.p. route (LD0, LD100). The data set is classed as in vivo. An excerpt: The LD0 and LD100 values in mice via the i.p. route are also given in this table.
Data set [3] deals with rats. The data set is described as follows: Induction of stereotyped movements in rats. The format is in vivo, rat (male, CD, Sprague-Dawley). Conditions: i.p. As to the method:
Induction of Stereotyped Movements in Rats
Groups of 6 rats (male, CD, Sprague-Dawley, Charles River, 160-200 g) receive CRL 41 789 or CRL 41 790 intraperitoneally in distilled water (5 ml/kg), and are immediately place in Flexiglas cages (20×10×10cm). The stereotyped movements are scored from 0 to 3 every 10 minutes until they have disappeared.

The subject of data set [4] is anaesthetized rat striatum. The data set is described as follows: Extracellular levels of neuro-mediators and metabolites in anaesthetized rat striatum (intracerebral microdialysis). The data set is classed as in vivo, rat (male, Sprague-Dawley CD). Conditions: doses of 16, 32 or 64 mg/kg i.p.; for 3-methoxytyramine (3MT) concentration in the dialysate / dopamine concentration in the dialysate: hydrochloride. The protocol: Effect On The Extracellular Levels Of Neuro-Mediators And Metabolites In Anaesthetized Rat Striatum (Intracerebral Microdialysis)
This determination is obtained by high performance liquid chromatography coupled with and electro-chemical detection.
HPLC: Spherisorb cartridge, ODS-2 (5 μm), L=[…], =4 mm, Merck. Mobile phase: 0.1 M potassium phosphate, 0.1 M citric acid, octane-sulphonic acid 50 mg/l, 0.1 mM EDTA, 4% methanol, ph 4.80 , pump output 0.9 ml/min
electrochemical detection: BAS detector, LC-4C, +750 mV
analyser: Millenium, Waters
Rats (male, Sprague-Dawley CD, Charles River, 280-300 g) anaesthetized with chloral hydrate (400 mg/kg, i.p.) are placed in a stereotactic apparatus. The micro-dialysis probe (CMA/11 L=3 mm, =0.24 mm, Carnegie) is implanted according to the coordinates of the Paxinos and Watson atlas in the anterior portion of the left striatum: I=10, L=2.4, H=-6.1.
Ringer's fluid (CaCl2 =2.4 mM, KCl=4 mM, NaCl=147 mM) is perfused at 2 μl/min into the probe. The dialysates collected every 20 minutes are cooled (to approximately 6° C.) and then analysed.
After one hour of collection, groups of 6 rats receive intraperitoneally in a volume of 5 ml/kg:
either an injection of isotonic sodium chloride solution,
or the test compound dissolved in distilled water at doses of 16, 32 or 64 mg/kg.
In the dialysate, the dopamine (DA), 3,4-dihydroxyphenylacetic acid (DOPAC), homovanillic acid (HVA) and 3-methoxytyramine (3MT) concentrations are measured by electrochemical detection and quantified with respect to a standard series, and are corrected in accordance with the efficiency of the probe determined in vitro before each test.
Only tests in which the probes display an efficiency of more than 5% are taken into account.

Data set [5] deals with mice. The data set is described as follows: Locomotor activity of mice. Particulars: recorded over 30 minutes. The data set is classed as in vivo, mice (male, NMRI). As to the method: Effects on the Locomotor Activity of Mice
Half an hour after receiving CRL 41 789 or CRL 41 790 intraperitoneally in distilled water, groups of 6 to 24 mice (male, NMRI, C.R.E. Janvier, 18-22 g) are placed individually in crossed-beam activity cages, where their locomotor activity (number of rays crossed) is recorded over 30 minutes.

The subject of data set [6] is mice. Nature of the data set: Test of "behavioural despair" in mice. The data set is classed as in vivo, mice (male, CD1). From the text:
Effects on the Test of "Behavioural Despair"in Mice
Half an hour after receiving CRL 41 789 or CRL 41 790 intraperitoneally in distilled water, groups of 6 or 12 mice (male, CD1, Charles River, 18-22 g) are placed individually in a high vessel made of transparent glass, filled with water to a height of 6 cm. The total period of immobility between the beginning of the 3rd minute and the end of the 6th minute following immersion of the animal is noted.

Data set [7] is described as follows: Solubility of the product. The format is physicochemical.
Setting [8] is: Inhibition of binding at the site of dopamine reuptake IC50, rat striatum.
Where [9] appears, read: Inhibition of binding at the site of dopamine reuptake Ki, rat striatum.
[10] abbreviates: rat striatum, read-out: Inhibition of binding at the site of dopamine reuptake IC50.
Setting [11] is: rat striatum, read-out: Inhibition of binding at the site of dopamine reuptake Ki.

T1 sequence (P23977 whole entry): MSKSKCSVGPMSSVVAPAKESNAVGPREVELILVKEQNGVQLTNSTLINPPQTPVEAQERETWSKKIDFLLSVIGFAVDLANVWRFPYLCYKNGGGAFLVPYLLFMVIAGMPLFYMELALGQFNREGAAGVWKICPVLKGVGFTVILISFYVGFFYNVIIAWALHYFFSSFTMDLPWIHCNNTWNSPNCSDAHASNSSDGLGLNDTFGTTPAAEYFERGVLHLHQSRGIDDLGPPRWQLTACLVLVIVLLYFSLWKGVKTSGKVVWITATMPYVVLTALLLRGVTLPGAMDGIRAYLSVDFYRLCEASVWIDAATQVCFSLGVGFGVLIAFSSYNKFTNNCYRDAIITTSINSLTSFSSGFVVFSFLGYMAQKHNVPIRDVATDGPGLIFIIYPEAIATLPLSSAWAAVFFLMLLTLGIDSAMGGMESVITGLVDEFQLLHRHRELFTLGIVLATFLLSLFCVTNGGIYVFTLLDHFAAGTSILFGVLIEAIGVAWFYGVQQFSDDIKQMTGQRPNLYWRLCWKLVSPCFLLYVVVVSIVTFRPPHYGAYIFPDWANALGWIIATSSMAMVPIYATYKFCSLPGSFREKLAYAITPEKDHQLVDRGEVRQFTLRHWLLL

In data set [1] (setting [8]), `CC(C)(C)NCC(SCC(N)=O)c1ccc(Cl)c(Cl)c1` (racemic) [CRL 41 414, [α-(tert-butylaminomethyl)-3,4-dichlorobenzyl]thioacetamide] returned an IC50 of 31 nM. In data set [1] (setting [9]), this compound came in with a Ki of 63 nM. In data set [2], this compound came in with an LD0 of 128 mg/kg and an LD100 of 256 mg/kg.

For `CC(C)(C)NCC(SCC(N)=O)c1ccc(Cl)c(Cl)c1` (single isomer, unassigned) [CRL 41 789, 1(-)-[α-(tert-butylaminomethyl)-3,4-dichlorobenzyl]thioacetamide hydrochloride], the stereotyped movements result in data set [3] (16 and 32 mg/kg) was “appearance of intense and lasting stereotyped movements”. Moreover, in data set [4], the “DOPAC concentration in the dialysate” value is “without modification”, the “HVA concentration in the dialysate” value was “without modification”, the “3-methoxytyramine (3MT) concentration in the dialysate” value was “significant increase” and the “dopamine concentration in the dialysate” value is reported as “significant increase”. In addition, the locomotor activity result in data set [5] (i.p., 2, 8 and 32 mg/kg) was “marked and statistically significant increase in the locomotor activity of the mice is observed, the increase rising with the dose”. In addition, the IC50 in data set [1] (setting [10]) stood at 44 nM. The inhibition constant Ki in data set [1] (setting [11]) is 24 nM. Further, in data set [2] (hydrochloride), the LD0 worked out at 64 mg/kg and the LD100 was found to be 256 mg/kg. For the same compound, the period of immobility entry in data set [6] (i.p., 0.5, 2, 8 and 32 mg/kg) is “a decrease in the period of immobility is observed, the decrease rising with the dose”. Moreover, the “period of immobility, significance of the effect” value in data set [6] (i.p., 8 and 32 mg/kg) is “marked and statistically significant”. Besides, in data set [7], the solubility in ethanol result is on record as “soluble”, the solubility in ether entry is “insoluble”, the “solubility in ethyl acetate” value was “insoluble” and the solubility in water result is “soluble”.

As to `CC(C)(C)NCC(SCC(N)=O)c1ccc(Cl)c(Cl)c1` (single isomer, unassigned) [CRL 41 790, d(+)-[α-(tert-butylaminomethyl)-3,4-dichlorobenzyl]thioacetamide hydrochloride], the stereotyped movements result in data set [3] (even at the high dose of 128 mg/kg) is on record as “does not cause the appearance of any stereotyped movement”. Besides, in data set [4], the “3-methoxytyramine (3MT) concentration in the dialysate” value is on record as “does not cause any modification” and the “dopamine concentration in the dialysate” value is “does not cause any modification”. Further, the locomotor activity result in data set [5] (i.p., even at 64 mg/kg) is recorded as “does not give rise to any increase in the locomotor activity”. For the same compound, the concentration for half-maximal inhibition (IC50) in data set [1] (setting [10]) was 1100 nM. Further, the Ki in data set [1] (setting [11]) is 620 nM. In data set [2] (hydrochloride), this compound registered an LD0 of 128 mg/kg and an LD100 of 512 mg/kg. The period of immobility result in data set [6] (i.p., even at the high dose of 64 mg/kg) is recorded as “does not give rise to any decrease in the period of immobility”. Moreover, in data set [7], the solubility in ethanol result is on record as “soluble”, the solubility in ether result is “insoluble”, the “solubility in ethyl acetate” value is “insoluble” and the solubility in methanol entry is “soluble”. The solubility in water entry in data set [7] is reported as “soluble”.

The compound `CCC(C)(C)NCC(SCC(N)=O)c1ccc(Cl)c(Cl)c1` (stereo not drawn) [CRL 42 059, [α-(tert-amylaminomethyl)-3,4-dichlorobenzyl]thioacetamide hydrochloride] had an IC50 in data set [1] (setting [8]) of 74 nM. This compound showed a Ki in data set [1] (setting [9]) of 46 nM. In data set [2], the LD0 was determined as 30 mg/kg and the LD100 is given as 256 mg/kg. The solubility in alcohols entry in data set [7] (alcohols) is “soluble”. For the same compound, in data set [7], the solubility in ether entry is listed as “insoluble”, the “solubility in ethyl acetate” value is “insoluble” and the solubility in water entry was “soluble”.

Compound `NC(=O)CSC(CNC12CC3CC(CC(C3)C1)C2)c1ccc(Cl)c(Cl)c1` (stereo not drawn) [CRL 42 060, [α-(1-adamantylaminomethyl)-3,4-dichlorobenzyl]thioacetamide hemifumarate] came in with a half-maximal inhibitory concentration (IC50) in data set [1] (setting [8]) of 40 nM. In addition, the Ki in data set [1] (setting [9]) was 44 nM. Moreover, in data set [2], the LD0 is given as 128 mg/kg and the LD100 is listed as 1024 mg/kg. Further, the “solubility in DMSO” value in data set [7] (DMSO) is listed as “soluble”. Also, in data set [7], the solubility in ether result is on record as “insoluble”, the “solubility in ethyl acetate” value is reported as “insoluble”, the solubility in methanol result was “soluble” and the solubility in water result is “insoluble”.

Usually IC50 stands for the concentration needed to halve the response being measured. What is called Ki is the dissociation constant of the complex between target and ligand, obtained from inhibition or displacement.
